In US6040149A, “Assay for identifying agents which act on the ceramide-activated protein kinase, kinase suppressor of ras, and methods of using said agents” (priority 1997, dated 2000):

Tests used:
Raf-1 = Raf-1 phosphorylation in vitro by renatured CAP kinase; type: biochemical, human (recombinant Raf-1); conditions: CAP kinase from TNF-stimulated HL-60 cells
Text: The data represent one of five similar experiments.
The data represent one of four similar experiments.
The data represent one of three similar experiments.
CAP kinase was the only kinase to renature from HL-60 cell membranes and that this activity was exclusively membrane-bound, since no 100-110 kDa activity could be renatured from cytosolic fractions. […] Conditions for CAP kinase activity were optimized previously using myelin basic protein (MBP) or a peptide derived from the amino acid sequence surrounding Thr669 of the epidermal growth factor receptor as substrates.
FIG. 17A--HL-60 cells were incubated in serum-free RPMI [RPMI containing 16 mg/ml serine, 8.4 mg/ml asparagine, 16.7 mg/ml glutamine, 25 mM HEPES, pH 7.4 and 0.5 mg/ml each of insulin and transferrin] at 1×106 ml^-1 for 2 hr, followed by stimulation with TNF (1 nM) for 20 min. […] Centrifugation for 5 min at 700×g yielded a post-nuclear supernate from which microsomal membranes were prepared by centrifugation at 250,000×g for 30 min. Microsomal membranes were resuspended into homogenizing buffer and proteins (30×10^6 cell equivalents/lane)were resolved on a 7.5% SDS-polyacrylamide gel. CAP kinase was renatured as described by Liu et al.. […]

[1] = tested on: ceramide-activated protein kinase; assay: CAP kinase activation in HL-60 cells (renaturation and autophosphorylation); type: cell-based, human (HL-60 cells); conditions: TPA 100 ng/ml
Procedure: Stimulation of ceramide-activated protein (CAP) kinase by lipid A. On the day of an experiment, HL-60 cells were resuspended (1×10^6 cells ml^-1) into serum-free RPMI 1640 containing 5 μg ml^-1 insulin and transferrin. After 2 h, cells were stimulated with lipid A (Escherichia Coli) or diluent (DMSO, <0.01%). Ceramide-activated protein kinase contained within microsomal membranes was detected by renaturation and autophosphorylation. Briefly, membrane proteins (200 μg per lane) were separated by SDS-PAGE (10%), and the gel was washed with two changes of buffer (50 mM Tris, pH 7.4, 5 mM 2-mercaptoethanol) containing 20% 2-propanol at room temperature for 1 h, and once in buffer without 2-propanol for 1 h. Denaturation was accomplished by incubation of the gel in two changes of 6M guanidinium HCl in wash buffer for 1 h each. Renaturation was accomplished by incubation of the gel overnight at 4° C. in wash buffer containing 0.04% Tween-20. The gel was then equilibrated for 10 min at room temperature in kinase reaction mixture (25 mM HEPES, pH 7.4, 10 mM MgCl2, 0.5 mM EGTA and 5 mM NaF) and [γ-^32 p] ATP (50 μM final concentration; 1000 dpm pmol^-1) was added. Autophosphorylation was terminated by removal of the reaction mixture. The gel was washed with 6 changes of buffer (5% trichloroacetic acid, 1% sodium pyrophosphate) for 2 h and subjected to autoradiography. Top panel--Time course of lipid A activation. Bottom panel--Dose response at 5 minutes of lipid A stimulation. Autoradiograms represent one of three similar studies in both panels A and B.
On the day of an experiment, cells were resuspended (1×10^6 cells ml^-1) into serum-free RPMI 1640 containing 5 μg ml^-1 insulin and transferrin. After 2 h, cells were stimulated with lipid A or diluent (DMSO, <0.01% ). […] The postnuclear supernate was centrifuged at 200,000×g for 30 min and microsomal membranes were resuspended ([…]) into homogenizing buffer. Ceramide-activated protein kinase was detected by renaturation and autophosphorylation. Briefly, membrane proteins (200 μg per lane) were separated by SDS-PAGE (10%), and the gel was washed with two changes of buffer (50 mM Tris, pH 7.4, 5 mM 2-mercaptoethanol) containing 20% 2-propanol at room temperature for 1 h, and once in buffer without 2-propanol for 1 h. Denaturation was accomplished by incubation of the gel in two changes of 6M guanidinium HCl in wash buffer for 1 h each. Renaturation was accomplished by incubation of the gel overnight at 4° C. in wash buffer containing 0.04% Tween-20. The gel was then equilibrated for 10 min at room temperature in kinase reaction mixture (25 mM HEPES, pH 7.4, 10 mM MgCl2, 0.5 mM EGTA and 5 mM NaF) and [γ-^32 P] ATP (50 μM final concentration; 1000 dpm pmol^-1. Autophosphorylation was terminated by removal of the reaction mixture. The gel was washed with 6 changes of buffer (5% trichloracetic acid, 1% sodium pyrophosphate) for 2 h and subjected to autoradiography.
For studies involving activation of ceramide-activated protein kinase by LPS, HL-60 cells (13×10^6 ml^-1) were handled as above, and LPS (Salmonella typhosa, 50 ng ml^-1), recombinant LBP (1.7 μg ml^-1) or both LPS and LBP were added for the times indicated. Isolation of microsomal membranes and autophosphorylation of ceramide-activated protein kinase were performed as above.

Compound | enhancement of Raf-1 phosphorylation (Raf-1) | activation of CAP kinase [1]
TNF-α | 4-5 fold | 
CCCCCCCCCCCCCC(=O)O[C@@H]1[C@@H](C)[C@@]2(O)[C@@H](C=C(CO)C[C@]3(O)C(=O)C(C)=C[C@@H]23)[C@@H]2C(C)(C)[C@]12OC(C)=O [TPA, 12-0-tetradecanoylphorbol-13-acetate] |  | did not activate CAP kinase
